Test results from PMC8150835, “An Smp43-Derived Short-Chain α-Helical Peptide Displays a Unique Sequence and Possesses Antimicrobial Activity against Both Gram-Positive and Gram-Negative Bacteria” (Toxins, 2021).
Where a SMILES comes first, the peptide text is derived from it.

Columns and labels:
Type in all cases: cell-based
[1] = test system: Staphylococcus aureus ATCC29213; assay: MIC determination (broth microdilution); conditions: MHB, 5 × 10^5 CFU/mL, peptide 0.625 to 40 μg/mL, 37 °C, 18 h, OD 630 nm
Experimental: (§1) The antimicrobial activities of the peptides were tested against S. aureus ATCC29213, E. faecalis ATCC29212, E. coli ATCC25922, K. pneumoniae ATCC700603, P. aeruginosa ATCC27853 and A. baumannii ATCC19606. All these strains were purchased from the China Center of Type Culture Collection (CCTCC).
(§2) The antimicrobial activities of the peptides were determined as previously described. Briefly, the bacteria were incubated at 37 °C and 150 rpm until the log phase of growth. Next, the bacteria were diluted with Mueller-Hinton broth (MHB, Oxoid, UK) and prepared in a clear round-bottom polypropylene 96-well microtiter plate to achieve a final concentration of 5 × 10^5 colony-forming unit (CFU)/mL. Twofold serial dilutions of the peptides were added into each well with the concentrations ranging from 0.625 to 40 μg/mL. The mixed peptides and cells were cultured at 37 °C and 150 rpm for 18 h, and the optical density (OD) was measured at 630 nm. The minimum inhibitory concentration was defined as the lowest peptide concentration with no detectable bacterial growth.

[2] = test system: Escherichia coli ATCC25922; assay: MIC determination (broth microdilution); conditions: MHB, 5 × 10^5 CFU/mL, peptide 0.625 to 40 μg/mL, 37 °C, 18 h, OD 630 nm
Experimental: as §1, §2

[3] = test system: Pseudomonas aeruginosa ATCC27853; assay: MIC determination (broth microdilution); conditions: MHB, 5 × 10^5 CFU/mL, peptide 0.625 to 40 μg/mL, 37 °C, 18 h, OD 630 nm
Experimental: as §1, §2

[4] = test system: Klebsiella pneumoniae ATCC700603; assay: MIC determination (broth microdilution); conditions: MHB, 5 × 10^5 CFU/mL, peptide 0.625 to 40 μg/mL, 37 °C, 18 h, OD 630 nm
Experimental: as §1, §2

[5] = test system: Acinetobacter baumannii ATCC19606; assay: MIC determination (broth microdilution); conditions: MHB, 5 × 10^5 CFU/mL, peptide 0.625 to 40 μg/mL, 37 °C, 18 h, OD 630 nm
Experimental: as §1, §2

[6] = test system: Enterococcus faecalis ATCC29212; assay: MIC determination (broth microdilution); conditions: MHB, 5 × 10^5 CFU/mL, peptide 0.625 to 40 μg/mL, 37 °C, 18 h, OD 630 nm
Experimental: as §1, §2

[7] = test system: human red blood cells; assay: Hemolytic activity determination; conditions: 2% (v/v) hRBCs, peptide 12.5-200 μg/mL, 37 °C, 1 h, absorbance 540 nm; 1% Triton X-100 = 100%; three independent experiments
Experimental: The hemolytic activities of the peptides were determined against human red blood cells (hRBCs). Briefly, fresh hRBCs anticoagulated with sodium citrate were rinsed with 0.9% sodium chloride by centrifugation (1000× g, 5 min). Then, the cells were diluted to a final concentration of 2% (v/v) and prepared in a clear 96-well polypropylene microtiter plate. Next, the samples were mixed with a series of concentrations of the peptide (12.5, 25, 50, 100 and 200 μg/mL) and incubated at 37 °C for 1 h. After that, the samples were centrifuged (2000× g, 10 min), and the absorbances of the supernatants were measured at 540 nm to evaluate the release of hemoglobin. HRBCs treated with 1% Triton X-100 or 0.9% sodium chloride were taken as 100% and 0% hemolysis, respectively.

Structure (SMILES) | MIC [1] [µg/mL] | MIC [2] [µg/mL] | MIC [3] [µg/mL] | MIC [4] [µg/mL] | MIC [5] [µg/mL] | MIC [6] [µg/mL] | HC10: the concentration of the peptide that causes 10% hemolysis of human red blood cells [7] [µg/mL]
CC[C@H](C)[C@H](NC(=O)[C@H](CCCCN)NC(=O)CNC(=O)[C@H](C)NC(=O)[C@@H](NC(=O)[C@H](CCCCN)NC(=O)[C@H](CCCCN)NC(=O)[C@@H](NC(=O)[C@H](Cc1c[nH]c2ccccc12)NC(=O)[C@H](CC(=O)O)NC(=O)[C@@H](N)Cc1c[nH]c2ccccc12)[C@@H](C)CC)[C@@H](C)O)C(=O)N[C@@H](Cc1c[nH]c2ccccc12)C(=O)N[C@@H](CC(N)=O)C(=O)N[C@@H](CO)C(N)=O [Smp43(3-16)] (H-WDWIKKTAGKIWNS-NH2) | > 40 | > 40 | > 40 | > 40 | > 40 | > 40 | > 200
CC[C@H](C)[C@H](NC(=O)[C@H](CCCCN)NC(=O)CNC(=O)[C@H](C)NC(=O)[C@@H](NC(=O)[C@H](CCCCN)NC(=O)[C@H](CCCCN)NC(=O)[C@@H](NC(=O)[C@@H](N)Cc1c[nH]c2ccccc12)[C@@H](C)CC)[C@@H](C)O)C(=O)N[C@@H](Cc1c[nH]c2ccccc12)C(=O)N[C@@H](CC(N)=O)C(=O)N[C@@H](CO)C(=O)N[C@@H](CCC(=O)O)C(=O)N1CCC[C@H]1C(N)=O [Smp43(5-18)] (H-WIKKTAGKIWNSEP-NH2) | > 40 | > 40 | > 40 | > 40 | > 40 | > 40 | > 200
CC[C@H](C)[C@H](NC(=O)[C@H](CCCCN)NC(=O)CNC(=O)[C@H](C)NC(=O)[C@@H](NC(=O)[C@H](CCCCN)NC(=O)[C@@H](N)CCCCN)[C@@H](C)O)C(=O)N[C@@H](Cc1c[nH]c2ccccc12)C(=O)N[C@@H](CC(N)=O)C(=O)N[C@@H](CO)C(=O)N[C@@H](CCC(=O)O)C(=O)N1CCC[C@H]1C(=O)N[C@H](C(=O)N[C@@H](CCCCN)C(N)=O)C(C)C [Smp43(7-20)] (H-KKTAGKIWNSEPVK-NH2) | > 40 | > 40 | > 40 | > 40 | > 40 | > 40 | > 200
CC[C@H](C)[C@H](NC(=O)[C@H](CCCCN)NC(=O)CNC(=O)[C@H](C)NC(=O)[C@@H](N)[C@@H](C)O)C(=O)N[C@@H](Cc1c[nH]c2ccccc12)C(=O)N[C@@H](CC(N)=O)C(=O)N[C@@H](CO)C(=O)N[C@@H](CCC(=O)O)C(=O)N1CCC[C@H]1C(=O)N[C@H](C(=O)N[C@@H](CCCCN)C(=O)N[C@@H](C)C(=O)N[C@@H](CC(C)C)C(N)=O)C(C)C [Smp43(9-22)] (H-TAGKIWNSEPVKAL-NH2) | > 40 | > 40 | > 40 | > 40 | > 40 | > 40 | > 200
CC[C@H](C)[C@H](NC(=O)[C@H](CCCCN)NC(=O)CN)C(=O)N[C@@H](Cc1c[nH]c2ccccc12)C(=O)N[C@@H](CC(N)=O)C(=O)N[C@@H](CO)C(=O)N[C@@H](CCC(=O)O)C(=O)N1CCC[C@H]1C(=O)N[C@H](C(=O)N[C@@H](CCCCN)C(=O)N[C@@H](C)C(=O)N[C@@H](CC(C)C)C(=O)N[C@@H](CCCCN)C(=O)N[C@@H](CO)C(N)=O)C(C)C [Smp43(11-24)] (H-GKIWNSEPVKALKS-NH2) | > 40 | > 40 | > 40 | > 40 | > 40 | > 40 | > 200
CC[C@H](C)[C@H](N)C(=O)N[C@@H](Cc1c[nH]c2ccccc12)C(=O)N[C@@H](CC(N)=O)C(=O)N[C@@H](CO)C(=O)N[C@@H](CCC(=O)O)C(=O)N1CCC[C@H]1C(=O)N[C@H](C(=O)N[C@@H](CCCCN)C(=O)N[C@@H](C)C(=O)N[C@@H](CC(C)C)C(=O)N[C@@H](CCCCN)C(=O)N[C@@H](CO)C(=O)N[C@@H](CCC(N)=O)C(=O)N[C@@H](C)C(N)=O)C(C)C [Smp43(13-26)] (H-IWNSEPVKALKSQA-NH2) | > 40 | > 40 | > 40 | > 40 | > 40 | > 40 | > 200
CC(C)C[C@H](NC(=O)[C@H](C)NC(=O)[C@H](CCC(N)=O)NC(=O)[C@H](CO)NC(=O)[C@H](CCCCN)NC(=O)[C@H](CC(C)C)NC(=O)[C@H](C)NC(=O)[C@H](CCCCN)NC(=O)[C@@H](NC(=O)[C@@H]1CCCN1C(=O)[C@H](CCC(=O)O)NC(=O)[C@H](CO)NC(=O)[C@@H](N)CC(N)=O)C(C)C)C(=O)N[C@@H](CC(N)=O)C(N)=O [Smp43(15-28)] (H-NSEPVKALKSQALN-NH2) | > 40 | > 40 | > 40 | > 40 | > 40 | > 40 | > 200
CC(C)C[C@H](NC(=O)[C@H](C)NC(=O)[C@H](CCC(N)=O)NC(=O)[C@H](CO)NC(=O)[C@H](CCCCN)NC(=O)[C@H](CC(C)C)NC(=O)[C@H](C)NC(=O)[C@H](CCCCN)NC(=O)[C@@H](NC(=O)[C@@H]1CCCN1C(=O)[C@@H](N)CCC(=O)O)C(C)C)C(=O)N[C@@H](CC(N)=O)C(=O)N[C@@H](C)C(=O)N[C@@H](C)C(N)=O [Smp43(17-30)] (H-EPVKALKSQALNAA-NH2) | > 40 | > 40 | > 40 | > 40 | > 40 | > 40 | > 200
CC(C)C[C@H](NC(=O)[C@H](C)NC(=O)[C@H](CCC(N)=O)NC(=O)[C@H](CO)NC(=O)[C@H](CCCCN)NC(=O)[C@H](CC(C)C)NC(=O)[C@H](C)NC(=O)[C@H](CCCCN)NC(=O)[C@@H](N)C(C)C)C(=O)N[C@@H](CC(N)=O)C(=O)N[C@@H](C)C(=O)N[C@@H](C)C(=O)N[C@@H](CCCCN)C(=O)N[C@@H](CC(N)=O)C(N)=O [Smp43(19-32)] (H-VKALKSQALNAAKN-NH2) | > 40 | > 40 | > 40 | > 40 | > 40 | > 40 | > 200
CC(C)C[C@H](NC(=O)[C@H](C)N)C(=O)N[C@@H](CCCCN)C(=O)N[C@@H](CO)C(=O)N[C@@H](CCC(N)=O)C(=O)N[C@@H](C)C(=O)N[C@@H](CC(C)C)C(=O)N[C@@H](CC(N)=O)C(=O)N[C@@H](C)C(=O)N[C@@H](C)C(=O)N[C@@H](CCCCN)C(=O)N[C@@H](CC(N)=O)C(=O)N[C@@H](Cc1ccccc1)C(=O)N[C@H](C(N)=O)C(C)C [Smp43(21-34)] (H-ALKSQALNAAKNFV-NH2) | > 40 | > 40 | > 40 | > 40 | > 40 | > 40 | > 200
CC(C)C[C@H](NC(=O)[C@H](C)NC(=O)[C@H](CCC(N)=O)NC(=O)[C@H](CO)NC(=O)[C@@H](N)CCCCN)C(=O)N[C@@H](CC(N)=O)C(=O)N[C@@H](C)C(=O)N[C@@H](C)C(=O)N[C@@H](CCCCN)C(=O)N[C@@H](CC(N)=O)C(=O)N[C@@H](Cc1ccccc1)C(=O)N[C@H](C(=O)N[C@@H](C)C(=O)N[C@@H](CCC(=O)O)C(N)=O)C(C)C [Smp43(23-36)] (H-KSQALNAAKNFVAE-NH2) | > 40 | > 40 | > 40 | > 40 | > 40 | > 40 | > 200
